pIC50: −log10 of the molar value.

For 6 compounds, IC50 results are on record in BindingDB's records for doi:10.1021/jm010801s (2002).

Cathepsin K (Oryctolagus cuniculus), sequence (P43236 whole entry, looked up): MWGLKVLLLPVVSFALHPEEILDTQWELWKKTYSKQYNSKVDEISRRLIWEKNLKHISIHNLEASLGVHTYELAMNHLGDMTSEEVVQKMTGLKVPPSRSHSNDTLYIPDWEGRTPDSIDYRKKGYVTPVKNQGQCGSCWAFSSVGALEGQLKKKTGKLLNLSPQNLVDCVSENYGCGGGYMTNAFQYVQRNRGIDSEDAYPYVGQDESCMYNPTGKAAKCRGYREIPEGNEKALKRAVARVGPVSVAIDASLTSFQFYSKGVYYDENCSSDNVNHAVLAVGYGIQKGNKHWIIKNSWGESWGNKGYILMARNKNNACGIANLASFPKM

The assay addresses Cathepsin K (Oryctolagus cuniculus) (UniProt P43236). The experiment in a line: Inhibition of recombinant rabbit Cathepsin K in a fluorescence assay.
A word on the pIC50: it is the IC50 on a negative log10 scale, so that one unit is a factor of ten. On to `Cc1cccc(NCCNC(=O)[C@H](CC(C)C)NC(=O)OCc2ccccc2)c1` [[3-Methyl-1-(2-m-tolylamino-ethylcarbamoyl)-butyl]-carbamic acid benzyl ester], for which the pIC50 was 6.34.

Take `Cc1ccc(NCCNC(=O)[C@H](CC(C)C)NC(=O)OCc2ccccc2)cc1` [[3-Methyl-1-(2-p-tolylamino-ethylcarbamoyl)-butyl]-carbamic acid benzyl ester]: the pIC50 is 6.72.

With `CC(C)C[C@H](NC(=O)OCc1ccccc1)C(=O)NCCNc1ccccc1` [[3-Methyl-1-(2-phenylamino-ethylcarbamoyl)-butyl]-carbamic acid benzyl ester], the pIC50 is 6.33.

`CC(C)C[C@H](NC(=O)OCc1ccccc1)C(=O)NCCNc1cccc(Cl)c1` [{1-[2-(3-Chloro-phenylamino)-ethylcarbamoyl]-3-methyl-butyl}-carbamic acid benzyl ester]: the pIC50 was less than 6.00.

Regarding `COc1cccc(NCCNC(=O)[C@H](CC(C)C)NC(=O)OCc2ccccc2)c1` [{1-[2-(3-Methoxy-phenylamino)-ethylcarbamoyl]-3-methyl-butyl}-carbamic acid benzyl ester], the pIC50 was less than 6.00.

On to `CC(C)C[C@H](NC(=O)OCc1ccccc1)C(=O)NCCNc1ccc(Cl)cc1` [{1-[2-(4-Chloro-phenylamino)-ethylcarbamoyl]-3-methyl-butyl}-carbamic acid benzyl ester], for which the negative-log IC50 (pIC50) was 6.46.
